In article PMC7108740, “Exploring the molecular structures that confer ligand selectivity for galanin type II and III receptors” (PLoS ONE, 2020):

Molecular target: T1, GALR3 septuple (Homo sapiens, UniProt O60755, A190V/A191F/C272L/G192S/L100F/Y103F/Y107H)
T1 construct: expressed in transfected cells; host or cells: HEK293 cells stably expressing pGlosensor-22F cAMP plasmid
T1 sequence (O60755 1-368 L100F/Y103F/Y107H/A190V/A191F/G192S/C272L): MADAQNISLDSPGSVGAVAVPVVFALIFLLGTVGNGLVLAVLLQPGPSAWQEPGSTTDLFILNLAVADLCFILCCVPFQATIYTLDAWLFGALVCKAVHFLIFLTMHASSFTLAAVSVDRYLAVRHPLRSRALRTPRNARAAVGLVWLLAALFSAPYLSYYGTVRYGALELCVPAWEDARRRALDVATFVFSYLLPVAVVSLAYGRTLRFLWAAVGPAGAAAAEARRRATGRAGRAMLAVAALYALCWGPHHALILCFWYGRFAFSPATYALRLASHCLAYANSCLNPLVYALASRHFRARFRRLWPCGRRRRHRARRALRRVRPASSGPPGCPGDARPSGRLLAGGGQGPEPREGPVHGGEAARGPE
Experiment: SRE-luc luciferase assay, GALR3 septuple mutant
Type: cell-based
Details: SRE-luc in HEK293 Gqi cells, ligand 6 h, mean ± SE, SEM
Excerpt: For domain swapping between GALR2 and GALR3, individual cDNA fragments of interest were amplified by polymerase chain reaction (PCR) with Pfu polymerase (ELPIS Biotech, Daejeon, Korea) and two specific primers, one corresponding to the 5' or 3' end of the GALR2 or GALR3 cDNA and the other to the region of overlap between the two receptors. The two resulting fragments, one from GALR2 and the other from GALR3, were subjected to a second round of PCR to generate the chimeric cDNAs. To construct single, double-, triple-, pentuple-, hextuple-, and septuple-mutant receptors, amino acids of GALR3 were substituted for the amino acids at the corresponding positions in GALR2 using PCR-based site-directed mutagenesis. […]
For luciferase assays, HEK293 Gqi cells were seeded on 48-well plates at a density of 2.5 × 10^4 cells/well one day before transfection. […] The luciferase activity in 50 μl cell extract was determined using a luciferase assay system according to the standard protocol for the Synergy 2 Multi-Mode Microplate Reader (BioTek, Winooski, VT, USA).
Data analysis was performed by non-linear regression with a sigmoidal dose-response curve. The concentrations of agonists that induced half-maximal stimulation (EC50) were calculated using the GraphPad PRISM5 software (GraphPad software, Inc., San Diego, CA). […]

EC50: 4.07 ± 1.12 nM
Compound: CSCC[C@H](NC(=O)[C@H](C)NC(=O)[C@H](CCC(N)=O)NC(=O)[C@@H]1CCCN1C(=O)[C@@H](NC(=O)[C@H](Cc1c[nH]c2ccccc12)NC(=O)[C@@H](N)CC(N)=O)[C@@H](C)O)C(=O)N[C@@H](CC(C)C)C(=O)N[C@@H](Cc1ccc(O)cc1)C(=O)N[C@@H](CC(C)C)C(=O)N[C@@H](CCCCN)C(=O)NCC(=O)N[C@@H](C)C(=O)N[C@@H](CCC(N)=O)C(N)=O [SPX, reference compound]
